How the values were obtained:
[1] = Differential scanning calorimetry (DSC) thermal analysis; type: physicochemical; conditions: crystalline solid; linear heating ramp of 10° C./min from 22° C. to 250° C.
Procedure: Differential scanning calorimetry (DSC) was performed using a TA Instruments Model Q-100 module with a Thermal Analyst controller. Data were collected and analyzed using TA Instruments Thermal Solutions software. A 2.05 mg sample of the crystalline compound of Example 1 was accurately weighed into a covered aluminum pan. After a 5 minute isothermal equilibration period at 22° C., the sample was heated using a linear heating ramp of 10° C./min from 22° C. to 250° C.
A 1.12 mg sample of the crystalline compound of Example 2 was similarly evaluated.

[2] = Thermogravimetric analysis (TGA); type: physicochemical; conditions: crystalline solid; from room temperature to 150.0° C.

thermal stability: no thermal decomposition below (DSC thermograph) [1] | loss of weight (residual moisture or solvent), TGA trace [2] | SMILES
≥ 150.0 °C |  | CCOc1nc(CC)c(CNC(=O)[C@H](CC(C)C)SC(C)=O)n1Cc1ccc(-c2ccccc2C(=O)O)cc1F [Example 2, 4′-{5-[((S)-2-acetylsulfanyl-4-methylpentanoylamino)methyl]-2-ethoxy-4-ethylimidazol-1-ylmethyl}-3′-fluorobiphenyl-2-carboxylic acid]
≥ 150.0 °C | < 0.5% | CCOc1nc(CC)c(CN)n1Cc1ccc(-c2ccccc2C(=O)OC(C)(C)C)cc1F [Example 1, 4′-(5-aminomethyl-2-ethoxy-4-ethylimidazol-1-ylmethyl)-3′-fluorobiphenyl-2-carboxylic acid t-butyl ester]
